{"source": "patent US20220000157A1", "about": "“MOUTH-COATING FEEL ENHANCER” (AJINOMOTO CO., INC., priority 2019, published 2022)", "test_system": "panel of 3 experts", "experiment": "Sensory evaluation of strength of mouth-coating feel of mayonnaise, single compounds in ethanol (Experimental Example 14)", "format": "in vivo", "settings": "for mouth-coating feel (in words): Table 20", "text": "as a Positive Control, General Commercially Available mayonnaise (manufactured by Ajinomoto Co., Inc., trade name “Pure Select (registered trade mark) mayonnaise”, oil and fat content: 73%) added with ethanol (manufactured by Japan Alcohol Corporation) (0.001 wt %) was used.\nAs a negative control, commercially available mayonnaise (manufactured by Ajinomoto Co., Inc., trade name “Pure Select (registered trade mark) KOKUUMA (registered trade mark) 65% Calorie Cut”, oil and fat content: 23%) with a smaller oil and fat content as compared with positive control mayonnaise and added with ethanol (manufactured by Japan Alcohol Corporation) (0.001 wt %) was used.\nGiven amounts of β-caryophyllene, β-caryophyllene oxide, clovanediol, (1R,3Z,5R,9S)-4,11,11-trimethyl-8-methylenebicyclo[7.2.0]undec-3-en-5-ol, (1R,4R,5R,9S)-4,11,11-trimethyl-8-methylenebicyclo[7.2.0]undecane-4,5-diol, clovanediol-3-monoacetate, clovanediol diacetate, clovanediol-3-monoisovalerate, α-pinene, α-pinene oxide, limonene, limonene oxide, α-terpineol (clovanediol, (1R,3Z,5R,9S)-4,11,11-trimethyl-8-methylenebicyclo[7.2.0]undec-3-en-5-ol, (1R,4R,5R,9S)-4,11,11-trimethyl-8-methylenebicyclo[7.2.0]undecane-4,5-diol, clovanediol-3-monoacetate, clovanediol diacetate and clovanediol-3-monoisovalerate used were those obtained in the above-mentioned Synthetic Examples and others used were manufactured by Sigma-Aldrich) were dissolved in ethanol (manufactured by Japan Alcohol Corporation), the ethanol (0.001 wt %) was added to the commercially available mayonnaise used for preparation of the above-mentioned negative control, and the obtained mayonnaise was used as an evaluation sample. The amounts of β-caryophyllene, β-caryophyllene oxide, clovanediol, (1R,3Z,5R,9S)-4,11,11-trimethyl-8-methylenebicyclo[7.2.0]undec-3-en-5-ol, (1R,4R,5R,9S)-4,11,11-trimethyl-8-methylenebicyclo[7.2.0]undecane-4,5-diol, clovanediol-3-monoacetate, clovanediol diacetate, clovanediol-3-monoisovalerate, α-pinene, α-pinene oxide, limonene, limonene oxide, α-terpineol dissolved in ethanol were each adjusted to fall within the range of 0.01-1 ppm with respect to mayonnaise, as shown in the following Table 20.\nFor the evaluation of the strength of the mouth-coating feel, a panel of 3 experts ate each mayonnaise of positive control, negative control and evaluation sample, and graded the evaluation samples in 0.1 point increments in the range of 0.0 to 5.0 points, with the positive control being 5.0 points and the negative control being 0.0 point.", "key": {"[1]": {"settings": "concentration 0.01 ppm with respect to mayonnaise"}, "[2]": {"settings": "concentration 0.1 ppm with respect to mayonnaise"}, "[3]": {"settings": "concentration 1 ppm with respect to mayonnaise"}}, "data": [{"smiles": "C=C1CC[C@H]2O[C@]2(C)CC[C@@H]2[C@@H]1CC2(C)C", "note": "[β-caryophyllene oxide]", "values": [{"measurement": "mouth-coating feel (in words)", "result": "enhanced"}, {"measurement": "strength of mouth-coating feel", "setting": "[1]", "result": 1.5, "unit": "points"}, {"measurement": "strength of mouth-coating feel", "setting": "[2]", "result": 2.6, "unit": "points"}, {"measurement": "strength of mouth-coating feel", "setting": "[3]", "result": 3.6, "unit": "points"}]}, {"smiles": "CC1=CCC2CC1C2(C)C", "note": "(stereo not drawn) [α-pinene, reference compound]", "values": [{"measurement": "strength of mouth-coating feel", "setting": "[3]", "result": 0.6, "unit": "points"}]}, {"smiles": "C=C1CC/C=C(\\C)CC[C@@H]2[C@@H]1CC2(C)C", "note": "[β-caryophyllene, reference compound]", "values": [{"measurement": "strength of mouth-coating feel", "setting": "[1]", "result": 0.0, "unit": "points"}, {"measurement": "strength of mouth-coating feel", "setting": "[2]", "result": 0.0, "unit": "points"}, {"measurement": "strength of mouth-coating feel", "setting": "[3]", "result": 0.1, "unit": "points"}]}, {"smiles": "CC1(C)C[C@H](O)[C@]23CC[C@@H](O)[C@](C)(CC[C@@H]12)C3", "note": "[clovanediol]", "values": [{"measurement": "mouth-coating feel (in words)", "result": "enhanced"}, {"measurement": "strength of mouth-coating feel", "setting": "[3]", "result": 3.1, "unit": "points"}]}, {"smiles": "CC1=CCC(C(C)(C)O)CC1", "note": "(stereo not drawn) [α-terpineol]", "values": [{"measurement": "mouth-coating feel (in words)", "result": "enhanced"}, {"measurement": "strength of mouth-coating feel", "setting": "[3]", "result": 2.0, "unit": "points"}]}, {"smiles": "CC1(C)C2CC3OC3(C)C1C2", "note": "(stereo not drawn) [α-pinene oxide]", "values": [{"measurement": "mouth-coating feel (in words)", "result": "enhanced"}, {"measurement": "strength of mouth-coating feel", "setting": "[3]", "result": 3.3, "unit": "points"}]}, {"smiles": "C=C(C)C1CCC2(C)OC2C1", "note": "(stereo not drawn) [limonene oxide]", "values": [{"measurement": "mouth-coating feel (in words)", "result": "enhanced"}, {"measurement": "strength of mouth-coating feel", "setting": "[3]", "result": 2.8, "unit": "points"}]}, {"smiles": "C=C(C)[C@H]1CC=C(C)CC1", "note": "[limonene, reference compound]", "values": [{"measurement": "strength of mouth-coating feel", "setting": "[3]", "result": 0.0, "unit": "points"}]}, {"smiles": "CC(=O)O[C@H]1CC(C)(C)[C@@H]2CC[C@]3(C)C[C@]12CC[C@H]3OC(C)=O", "note": "[clovanediol diacetate]", "values": [{"measurement": "mouth-coating feel (in words)", "result": "enhanced"}, {"measurement": "strength of mouth-coating feel", "setting": "[3]", "result": 3.2, "unit": "points"}]}, {"smiles": "CC(C)CC(=O)O[C@H]1CC(C)(C)[C@@H]2CC[C@]3(C)C[C@]12CC[C@H]3O", "note": "[clovanediol-3-monoisovalerate]", "values": [{"measurement": "mouth-coating feel (in words)", "result": "enhanced"}, {"measurement": "strength of mouth-coating feel", "setting": "[3]", "result": 3.2, "unit": "points"}]}, {"smiles": "CC(=O)O[C@H]1CC(C)(C)[C@@H]2CC[C@]3(C)C[C@]12CC[C@H]3O", "note": "[clovanediol-3-monoacetate]", "values": [{"measurement": "mouth-coating feel (in words)", "result": "enhanced"}, {"measurement": "strength of mouth-coating feel", "setting": "[3]", "result": 3.0, "unit": "points"}]}, {"smiles": "C=C1CC[C@@H](O)[C@](C)(O)CC[C@@H]2[C@@H]1CC2(C)C", "note": "[(1R,4R,5R,9S)-4,11,11-trimethyl-8-methylenebicyclo[7.2.0]undecane-4,5-diol]", "values": [{"measurement": "mouth-coating feel (in words)", "result": "enhanced"}, {"measurement": "strength of mouth-coating feel", "setting": "[3]", "result": 3.3, "unit": "points"}]}, {"smiles": "C=C1CC[C@@H](O)/C(C)=C\\C[C@@H]2[C@@H]1CC2(C)C", "note": "[(1R,3Z,5R,9S)-4,11,11-trimethyl-8-methylenebicyclo[7.2.0]undec-3-en-5-ol]", "values": [{"measurement": "mouth-coating feel (in words)", "result": "enhanced"}, {"measurement": "strength of mouth-coating feel", "setting": "[3]", "result": 3.0, "unit": "points"}]}]}
